Results: patent US11572590B2, “Methods for evaluating tumor cell spheroids using 3D microfluidic cell culture device” (Dana-Farber Cancer Institute, Inc., priority 2017, dated 2023)
Where two headings read alike, the source gives them in different places.

Key:
Assay in all cases: SelectScreen Kinase Profiling, single point inhibition and IC50 for off-target kinases
Assay type in all cases: biochemical
off-target kinases [1] = target: off-target kinases (Homo sapiens, UniProt P00533, L861Q); conditions: EGFR (ErbB1) L861Q (mutant), ZLYTE, ATP Km app
off-target kinases [2] = target: off-target kinases (Homo sapiens, UniProt P36507); conditions: MAP2K2 (MEK2)
off-target kinases [3] = target: T1, off-target kinases (Homo sapiens, UniProt Q04771, R206H); conditions: ACVR1 (ALK2) R206H, LanthaScreen Binding
T1 sequence (Q04771 21-509 R206H): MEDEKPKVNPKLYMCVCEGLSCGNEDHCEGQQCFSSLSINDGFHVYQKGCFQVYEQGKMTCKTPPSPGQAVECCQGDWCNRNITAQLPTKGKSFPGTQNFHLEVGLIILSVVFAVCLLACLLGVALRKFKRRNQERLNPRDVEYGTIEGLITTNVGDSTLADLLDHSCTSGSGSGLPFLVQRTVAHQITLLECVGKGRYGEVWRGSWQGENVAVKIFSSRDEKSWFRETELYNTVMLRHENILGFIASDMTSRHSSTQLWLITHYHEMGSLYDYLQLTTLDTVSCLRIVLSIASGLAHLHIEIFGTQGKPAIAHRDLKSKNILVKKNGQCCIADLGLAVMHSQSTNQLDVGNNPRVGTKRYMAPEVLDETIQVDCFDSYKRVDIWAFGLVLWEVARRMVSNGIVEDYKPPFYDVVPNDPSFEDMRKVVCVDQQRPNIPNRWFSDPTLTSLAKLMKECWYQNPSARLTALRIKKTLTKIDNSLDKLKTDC

off-target kinases [4] = target: T2, off-target kinases (Homo sapiens, UniProt Q12866, A708S); conditions: MERTK (cMER) A708S, mutant y, LanthaScreen Binding
T2 sequence (Q12866 21-999 A708S): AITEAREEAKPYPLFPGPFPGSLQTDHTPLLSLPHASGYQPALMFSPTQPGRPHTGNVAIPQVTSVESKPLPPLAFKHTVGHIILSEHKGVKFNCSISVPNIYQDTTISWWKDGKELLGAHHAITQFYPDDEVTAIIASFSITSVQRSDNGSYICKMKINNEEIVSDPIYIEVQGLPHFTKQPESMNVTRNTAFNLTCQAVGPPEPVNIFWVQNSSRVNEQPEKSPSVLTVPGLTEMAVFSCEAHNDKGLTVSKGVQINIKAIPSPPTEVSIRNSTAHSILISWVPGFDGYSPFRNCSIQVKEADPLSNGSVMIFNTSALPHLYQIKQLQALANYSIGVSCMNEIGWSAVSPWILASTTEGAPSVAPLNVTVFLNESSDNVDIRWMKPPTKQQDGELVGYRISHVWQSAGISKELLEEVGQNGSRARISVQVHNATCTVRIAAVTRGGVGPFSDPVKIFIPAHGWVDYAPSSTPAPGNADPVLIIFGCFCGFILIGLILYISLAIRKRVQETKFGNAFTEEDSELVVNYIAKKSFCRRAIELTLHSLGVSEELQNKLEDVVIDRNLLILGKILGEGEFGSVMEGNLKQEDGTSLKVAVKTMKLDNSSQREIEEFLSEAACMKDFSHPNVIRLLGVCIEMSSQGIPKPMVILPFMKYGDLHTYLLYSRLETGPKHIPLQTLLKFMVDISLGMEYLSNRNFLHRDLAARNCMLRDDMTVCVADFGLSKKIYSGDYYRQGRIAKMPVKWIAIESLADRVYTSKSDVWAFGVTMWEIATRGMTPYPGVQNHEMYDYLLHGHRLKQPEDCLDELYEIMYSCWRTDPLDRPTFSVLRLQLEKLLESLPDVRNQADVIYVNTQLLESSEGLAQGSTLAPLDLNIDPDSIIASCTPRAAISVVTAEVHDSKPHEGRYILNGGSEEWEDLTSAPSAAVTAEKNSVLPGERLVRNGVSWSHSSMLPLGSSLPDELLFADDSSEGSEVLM

off-target kinases (Homo sapiens, UniProt P36507), sequence (P36507 whole entry): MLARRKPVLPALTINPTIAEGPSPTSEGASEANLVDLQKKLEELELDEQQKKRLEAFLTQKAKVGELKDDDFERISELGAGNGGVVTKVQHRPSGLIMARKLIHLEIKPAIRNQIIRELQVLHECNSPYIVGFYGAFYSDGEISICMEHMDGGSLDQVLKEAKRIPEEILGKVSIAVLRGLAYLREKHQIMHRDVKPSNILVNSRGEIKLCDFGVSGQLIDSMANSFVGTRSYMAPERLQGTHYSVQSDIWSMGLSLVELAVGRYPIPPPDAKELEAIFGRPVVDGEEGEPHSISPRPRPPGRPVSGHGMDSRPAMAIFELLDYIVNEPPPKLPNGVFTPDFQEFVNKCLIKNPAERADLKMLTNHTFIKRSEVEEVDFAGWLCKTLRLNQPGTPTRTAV
off-target kinases (Homo sapiens, UniProt P00533, L861Q), sequence (P00533 25-1210 L861Q): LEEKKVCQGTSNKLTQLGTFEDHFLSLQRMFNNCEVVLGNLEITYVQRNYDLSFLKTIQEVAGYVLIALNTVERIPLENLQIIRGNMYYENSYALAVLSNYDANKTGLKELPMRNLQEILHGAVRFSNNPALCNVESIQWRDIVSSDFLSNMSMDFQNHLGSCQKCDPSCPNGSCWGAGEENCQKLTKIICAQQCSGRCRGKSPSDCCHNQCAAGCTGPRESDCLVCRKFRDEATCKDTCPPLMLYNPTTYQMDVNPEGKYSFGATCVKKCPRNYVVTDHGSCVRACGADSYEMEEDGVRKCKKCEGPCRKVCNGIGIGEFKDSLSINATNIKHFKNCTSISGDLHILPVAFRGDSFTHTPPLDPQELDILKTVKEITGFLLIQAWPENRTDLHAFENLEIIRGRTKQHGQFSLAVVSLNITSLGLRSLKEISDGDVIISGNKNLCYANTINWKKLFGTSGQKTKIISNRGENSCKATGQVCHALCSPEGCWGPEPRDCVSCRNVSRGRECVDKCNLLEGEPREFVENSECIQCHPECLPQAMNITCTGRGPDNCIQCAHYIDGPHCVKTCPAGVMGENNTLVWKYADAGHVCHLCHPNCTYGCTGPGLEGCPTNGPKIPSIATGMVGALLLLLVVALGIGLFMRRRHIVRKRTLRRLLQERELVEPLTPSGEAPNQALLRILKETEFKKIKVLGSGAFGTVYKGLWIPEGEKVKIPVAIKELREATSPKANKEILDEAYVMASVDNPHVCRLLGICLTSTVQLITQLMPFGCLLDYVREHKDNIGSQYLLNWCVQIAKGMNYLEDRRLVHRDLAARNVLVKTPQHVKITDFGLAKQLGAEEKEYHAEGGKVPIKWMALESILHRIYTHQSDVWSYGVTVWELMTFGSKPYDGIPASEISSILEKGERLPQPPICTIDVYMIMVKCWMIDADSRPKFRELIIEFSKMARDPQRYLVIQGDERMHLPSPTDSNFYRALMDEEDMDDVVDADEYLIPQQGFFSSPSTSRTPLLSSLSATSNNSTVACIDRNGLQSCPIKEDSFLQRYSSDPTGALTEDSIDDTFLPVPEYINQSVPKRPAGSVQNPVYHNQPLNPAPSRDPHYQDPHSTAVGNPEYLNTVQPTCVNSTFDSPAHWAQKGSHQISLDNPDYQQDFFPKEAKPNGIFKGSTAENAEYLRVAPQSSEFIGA

SMILES: N#Cc1cc(-c2ncnc(Nc3ccc(N4CCN(C5COC5)CC4)cc3)n2)ccc1OC1CCOCC1 [Compound 1, 5-(4-((4-(4-(oxetan-3-yl)piperazin-1-yl)phenyl)amino)-1,3,5-triazin-2-yl)-2-((tetrahydro-2H-pyran-4-yl)oxy)benzonitrile]
- inhibition (off-target kinases [1]; read-out: % Inhibition 1): 6%
- inhibition (off-target kinases [1]; read-out: % Inhibition 2): 5%
- inhibition (off-target kinases [1]; read-out: % Inhibition Avg): 5%
- inhibition (off-target kinases [2]; LanthaScreen Binding, read-out: % Inhibition 1): 5%
- inhibition (off-target kinases [2]; LanthaScreen Binding, read-out: % Inhibition 2): 5%
- inhibition (off-target kinases [2]; LanthaScreen Binding, read-out: % Inhibition Avg): 5%
- inhibition (off-target kinases [2]; ZLYTE, ATP 100, read-out: % Inhibition 1): 13%
- inhibition (off-target kinases [2]; ZLYTE, ATP 100, read-out: % Inhibition 2): 2%
- inhibition (off-target kinases [2]; ZLYTE, ATP 100, read-out: % Inhibition Avg): 8%
- inhibition (off-target kinases [3]; read-out: % Inhibition 1): 88%
- inhibition (off-target kinases [3]; read-out: % Inhibition 2): 93%
- inhibition (off-target kinases [3]; read-out: % Inhibition Avg): 91%
- inhibition (off-target kinases [4]; read-out: % Inhibition 1): 24%
- inhibition (off-target kinases [4]; read-out: % Inhibition 2): 27%
- inhibition (off-target kinases [4]; read-out: % Inhibition Avg): 26%
